Test results from patent US11008555B2 (The Regents of the University of California, priority 2015, dated 2021).

Tested on: chromosomal GFP
Test: CRISPRi GFP repression assay in E. coli
Format: cell-based, Escherichia coli MG1655
Conditions: ligand dose response on arC9:231, SOB media, normalized to vector control
Source text: Escherichia coli MG1655, which have chromosomally integrated constitutive GFP and RFP expression, were used for in vivo screening, fluorescence measurements, and transformation assays. Cell transformation, plasmid maintenance, and verification of transformation were done as previously described using AmpR and CmR as selectable markers. EZ-rich defined growth medium (EZ-RDM, Teknoka) was used for in vivo fluorescence assays unless otherwise noted. Super optimal broth (S.O.B) medium was used for library outgrowth and screening. The arC9 ligands used (4-hydroxytamoxifen (4-HT), nafoxidine, beta-estradiol, and diethylstilbestrol) were all ordered from Sigma and resuspended in dimethyl sulfoxide (DMSO).
For individual PDZ-construct testing, colonies were cultured from plates, PDZ-dCas9 plasmid DNA recovered, separated from the RFP guide plasmid (pgRNA-bacteria Addgene ID: 44251) via restriction digestion with BsaI and co-transformed with a guide plasmid to repress chromosomal GFP. GFP repression for each construct was then tested in triplicate in a 96-well microplate reader (Tecan M1000) at 37° C. PDZ clones were grown with appropriate antibiotics, 0.2 nM aTc, dCas9, and inducer. OD600 nm absorbance was measured for each well. GFP signal was measured, normalized for OD600 nm and compared when the cultures were approaching saturation (80% of the maximum OD600 nm) The arC9 construct was treated and assayed in the same fashion as above with induction using […]. Fold changes for the effect of different ligands were calculated by normalizing the GFP/OD600 of the arC9 construct to that of a vector control and dividing the fluorescent values without ligand by the fluorescent values with ligand treatment. For single cell analysis of arC9, cells were grown for ˜6 hours with antibiotics and inducer, washed with PBS, and assayed for GFP fluorescence using a Sony SH800 cell sorter.

C[C@]12CC[C@@H]3c4ccc(O)cc4CC[C@H]3[C@@H]1CC[C@@H]2O [beta-estradiol]
effect of ligand on arC9:231 CRISPRi-based GFP repression: increased only with ligands that encourage the ER-LBD to enter an antagonist conformation

COc1ccc2c(c1)CCC(c1ccccc1)=C2c1ccc(OCCN2CCCC2)cc1 [nafoxidine]
effect of ligand on arC9:231 CRISPRi-based GFP repression: increased

4-hydroxytamoxifen [4-HT]
effect of ligand on arC9:231 CRISPRi-based GFP repression: increased

CC/C(=C(/CC)c1ccc(O)cc1)c1ccc(O)cc1 [diethylstilbestrol]
effect of ligand on arC9:231 CRISPRi-based GFP repression: increased only with ligands that encourage the ER-LBD to enter an antagonist conformation
